Source: US9428542B2, “Lupane triterpenoid derivatives and pharmaceutical use thereof” (priority 2012, dated 2016)
Like-named read-outs stand apart in the source and are kept apart here.

How the values were obtained:
MT-2 cells = test: Compounds' cytotoxicity assay in MT-2 cells (CellTiter-Glo); type: cell-based; design: unit not given here; conditions: toxicity in MT-2 cells, 3 days
Description: 3. Method for Compounds' Cytotoxicity Assay:
The MT-2 cells are diluted to a needed concentration. 90 μl of the MT-2 cells suspension was added into 384-well plates containing 10 μl of the tested compounds. Compounds were dissolved in DMSO and tested as 11 points 3-fold serial dilutions. After addition of cells to compound plates, plates were placed to humidified 5% CO2 37 incubator for 3 days. The Luciferase activity was measured by CellTiter-Glo® Luminescent Cell Viability Assay kit (Promega Corp., WI, USA).
(§1) TC50 is referred to the toxicity in MT-2 cells by the compounds tested at 50% concentration; IC50 is referred to the inhibiting HIV-1IIIB replication in MT-2 cells by the compounds tested at 50% concentration; Therapeutic Index (TI)=TC50/IC50.

HIV-1IIIB = test: HIV-1 full replication assay (HIV-1IIIB-infected MT-2 cells, supernatant read out on TZM-bl cells, β-Gal); type: cell-based
Description: The antiviral activity of the compounds of the present invention was determined in a HIV-1 full replication assay.
In this assay, MT-2 cells that are infected with HIV-1IIIB were co-cultured with different concentration of the tested compounds for 3 days and then supernatant is transferred into new 384-well plates containing TZM-bl cells (also called JC53-bl). TZM-bl cells that could be infected by various kinds of HIV-1 strains stably express a great amount of HIV-1 receptor, co-receptor CD4 molecular, and co-receptor CXCR4 and CCR5. TZM-bl cells harbor LTR-luciferase and β-gal two report genes. The expression of luciferase and β-gal reporter directed by HIV-1 LTR can be activated by Tat protein generated after HIV infection, and the quantity of expression is proportional to the quantity of HIV-1. Compounds that interfere with virus replication in MT-2 cells, maturation of the virus, or post-entry steps in the HIV lifecycle decrease the luciferase signal or β-gal signal. In this experiment, BVM (Bevirimat, PA-457) is used as a positive control drug.
Method for Inhibiting HIV-1 Replication Assay:
The MT-2 cells are infected at a Multiciplicity (MOI) of 0.01 TCID50, and then the MT-2 cells suspension was diluted to a needed concentration. 90 μl of the MT-2 cells suspension from above was added into 384-well plates containing 10 μl of the tested compounds.
Compounds were dissolved in DMSO and tested as 11 points 3-fold serial dilutions. After addition of cells to compound plates, plates were placed to humidified 5% CO2 37 incubator for 3 days. 10 μl of cells culture supernatant from the incubated plates was transferred into new black 384-well plates.
Adjusted the TZMb1 cells concentration and 40 μl of TZMb1 cells was added into each well in the black 384-well plates. After addition of the TZMb1 cells to the black plates, black plates were placed to humidified 5% CO2 37 incubator for 24 h, then β-Gal activity was measured.
The anti viral activity %=(measured number-lowest mean number)/(highest mean number-lowest mean number)×100. The IC50 values were calculated by Median Equation and the IC curve was generated by Graphpad Prism V 5.03.
as §1

[1] = Human immunodeficiency virus 1, MT2, 72 h, inhibiting HIV-1IIIB replication in MT-2 cells, 3 days, read-out: IC50 (PM)
[2] = Human immunodeficiency virus 1, MT2, HIV replication in MT-2 cell (HIV-1IIIB) assay, read-out: IC50

Compound	TC50 (PM) (MT-2 cells)	IC50 (HIV-1IIIB; [1])	IC50 (HIV-1IIIB; Human immunodeficiency virus 1, MT2, 72 h, read-out: IC50 (PM))	IC50 (HIV-1IIIB; [2])
CC(C)C1=C2[C@H]3CC[C@@H]4[C@@]5(C)CC[C@H](OC(=O)CC(C)(C)C(=O)O)C(C)(C)[C@@H]5CC[C@@]4(C)[C@]3(C)CC[C@@]2(c2cc(=O)n(Cc3ccc(Cl)cc3)n2C)CC1=O [91′-1]	22			
CC(C)C1=C2[C@H]3CC[C@@H]4[C@@]5(C)CC[C@H](OC(=O)CC(C)(C)C(=O)O)C(C)(C)[C@@H]5CC[C@@]4(C)[C@]3(C)CC[C@@]2(Cc2cc(=O)n(-c3ccc(Cl)cc3)n2C)CC1=O [98′-1]	62	≤ 0.17 nM		
CC(C)C1=C2[C@H]3CC[C@@H]4[C@@]5(C)CC[C@H](OC(=O)CC(C)(C)C(=O)O)C(C)(C)[C@@H]5CC[C@@]4(C)[C@]3(C)CC[C@@]2(Cc2cc(=O)n(-c3ccc(Cl)cn3)n2C)CC1=O [98′-2]	56	0.37 nM		
C=C(C)[C@@H]1CC[C@]2(C(=O)O)CC[C@]3(C)[C@H](CC[C@@H]4[C@@]5(C)CC[C@H](OC(=O)CC(C)(C)C(=O)O)C(C)(C)[C@@H]5CC[C@]43C)[C@@H]12 [BVM, Bevirimat, reference compound]			5 nM	
CC(C)C1=C2[C@H]3CC[C@@H]4[C@@]5(C)CC[C@H](OC(=O)CC(C)(C)C(=O)O)C(C)(C)[C@@H]5CC[C@@]4(C)[C@]3(C)CC[C@@]2(Cc2nnc(-c3ccc(Cl)cc3)o2)CC1=O [Compound 22-1]	46	3.3 nM		
CC(C)C1=C2[C@H]3CC[C@@H]4[C@@]5(C)CC[C@H](OC(=O)CC(C)(C)C(=O)O)C(C)(C)[C@@H]5CC[C@@]4(C)[C@]3(C)CC[C@@]2(Cc2nnc(-c3ccccc3)o2)CC1=O [Compound 22-2]	28	1.7 nM		
CC(C)C1=C2[C@H]3CC[C@@H]4[C@@]5(C)CC[C@H](OC(=O)CC(C)(C)C(=O)O)C(C)(C)[C@@H]5CC[C@@]4(C)[C@]3(C)CC[C@@]2(Cc2nnc(-c3ccc(Cl)cn3)o2)CC1=O [Compound 22-3]	36	1.6 nM		
CC(C)C1=C2[C@H]3CC[C@@H]4[C@@]5(C)CC[C@H](OC(=O)CC(C)(C)C(=O)O)C(C)(C)[C@@H]5CC[C@@]4(C)[C@]3(C)CC[C@@]2(Cc2nnc(-c3cccnc3)o2)CC1=O [Compound 22-9]	33	4.3 nM		
CC(C)C1=C2[C@H]3CC[C@@H]4[C@@]5(C)CC[C@H](OC(=O)CC(C)(C)C(=O)O)C(C)(C)[C@@H]5CC[C@@]4(C)[C@]3(C)CC[C@@]2(Cc2nnc(-c3ccc(C(F)(F)F)cn3)o2)CC1=O [Compound 22-12]	31	0.4 nM		
CC(C)C1=C2[C@H]3CC[C@@H]4[C@@]5(C)CC[C@H](OC(=O)CC(C)(C)C(=O)O)C(C)(C)[C@@H]5CC[C@@]4(C)[C@]3(C)CC[C@@]2(Cc2nnc(-c3ccc(Cl)cc3F)o2)CC1=O [Compound 22-13]	35	1.7 nM		
CC(C)C1=C2[C@H]3CC[C@@H]4[C@@]5(C)CC[C@H](OC(=O)CC(C)(C)C(=O)O)C(C)(C)[C@@H]5CC[C@@]4(C)[C@]3(C)CC[C@@]2(Cc2nnc(-c3ccc(Br)cn3)o2)CC1=O [Compound 22-14]	200	≤ 0.17 nM		
CC(C)C1=C2[C@H]3CC[C@@H]4[C@@]5(C)CC[C@H](OC(=O)CC(C)(C)C(=O)O)C(C)(C)[C@@H]5CC[C@@]4(C)[C@]3(C)CC[C@@]2(Cc2nnc(-c3ccc(C#N)cn3)o2)CC1=O [Compound 22-15]	34	2.1 nM		
CC(C)C1=C2[C@H]3CC[C@@H]4[C@@]5(C)CC[C@H](OC(=O)CC(C)(C)C(=O)O)C(C)(C)[C@@H]5CC[C@@]4(C)[C@]3(C)CC[C@@]2(Cc2nnc(-c3ncc(Cl)cn3)o2)CC1=O [Compound 22-16]	39	0.48 nM		
COc1ccc(-c2nnc(C[C@@]34CC[C@]5(C)[C@H](CC[C@@H]6[C@@]7(C)CC[C@H](OC(=O)CC(C)(C)C(=O)O)C(C)(C)[C@@H]7CC[C@]65C)C3=C(C(C)C)C(=O)C4)o2)nc1 [Compound 22-17]	200	2.8 nM		
CC(C)C1=C2[C@H]3CC[C@@H]4[C@@]5(C)CC[C@H](OC(=O)CC(C)(C)C(=O)O)C(C)(C)[C@@H]5CC[C@@]4(C)[C@]3(C)CC[C@@]2(Cc2nnc(-c3ccc(F)cn3)o2)CC1=O [Compound 22-18]	48	1.7 nM		
CC(C)C1=C2[C@H]3CC[C@@H]4[C@@]5(C)CC[C@H](OC(=O)CC(C)(C)C(=O)O)C(C)(C)[C@@H]5CC[C@@]4(C)[C@]3(C)CC[C@@]2(c2nnc(-c3ccc(Cl)cc3)o2)CC1=O [Compound 27-1]	50	3.3 nM		
CC(C)C1=C2[C@H]3CC[C@@H]4[C@@]5(C)CC[C@H](OC(=O)CC(C)(C)C(=O)O)C(C)(C)[C@@H]5CC[C@@]4(C)[C@]3(C)CC[C@@]2(c2nnc(-c3ccccc3)o2)CC1=O [Compound 27-2]	100	2 nM		
CC(C)C1=C2[C@H]3CC[C@@H]4[C@@]5(C)CC[C@H](OC(=O)CC(C)(C)C(=O)O)C(C)(C)[C@@H]5CC[C@@]4(C)[C@]3(C)CC[C@@]2(c2nnc(-c3ccc(Cl)cn3)o2)CC1=O [Compound 27-3]	36	1.5 nM		
CC(C)C1=C2[C@H]3CC[C@@H]4[C@@]5(C)CC[C@H](OC(=O)CC(C)(C)C(=O)O)C(C)(C)[C@@H]5CC[C@@]4(C)[C@]3(C)CC[C@@]2(c2nnc(-c3cccnc3)o2)CC1=O [Compound 27-9]	200	8.8 nM		
CC(C)C1=C2[C@H]3CC[C@@H]4[C@@]5(C)CC[C@H](OC(=O)CC(C)(C)C(=O)O)C(C)(C)[C@@H]5CC[C@@]4(C)[C@]3(C)CC[C@@]2(c2nnc(-c3ccc(C(F)(F)F)cn3)o2)CC1=O [Compound 27-11]	23	25 nM		
CC(C)C1=C2[C@H]3CC[C@@H]4[C@@]5(C)CC[C@H](OC(=O)CC(C)(C)C(=O)O)C(C)(C)[C@@H]5CC[C@@]4(C)[C@]3(C)CC[C@@]2(c2cc(=O)n(CCN(C)C)n2C)CC1 [Compound 89-3]				< 5 nM
CC(C)C1=C2[C@H]3CC[C@@H]4[C@@]5(C)CC[C@H](OC(=O)CC(C)(C)C(=O)O)C(C)(C)[C@@H]5CC[C@@]4(C)[C@]3(C)CC[C@@]2(c2cc(=O)n(Cc3ccc(Cl)cc3)n2C)CC1=O [Compound 91-1]	41			
CC(C)C1=C2[C@H]3CC[C@@H]4[C@@]5(C)CC[C@H](OC(=O)CC(C)(C)C(=O)O)C(C)(C)[C@@H]5CC[C@@]4(C)[C@]3(C)CC[C@@]2(c2cc(=O)n(CCN(C)C)n2C)CC1=O [Compound 91-4]				< 2 nM
CC(C)C1=C2[C@H]3CC[C@@H]4[C@@]5(C)CC[C@H](OC(=O)CC(C)(C)C(=O)O)C(C)(C)[C@@H]5CC[C@@]4(C)[C@]3(C)CC[C@@]2(c2c(Cl)c(=O)n(-c3ccc(Cl)cc3)n2C)CC1=O [Compound 98-8]				< 2 nM
CC(C)C1=C2[C@H]3CC[C@@H]4[C@@]5(C)CC[C@H](OC(=O)CC(C)(C)C(=O)O)C(C)(C)[C@@H]5CC[C@@]4(C)[C@]3(C)CC[C@@]2(c2c(Cl)c(=O)n(-c3ccc(Cl)cc3)n2CCN)CC1=O [Compound 155-2]				< 2 nM
CC(C)C1=C2[C@H]3CC[C@@H]4[C@@]5(C)CC[C@H](OC(=O)CC(C)(C)C(=O)O)C(C)(C)[C@@H]5CC[C@@]4(C)[C@]3(C)CC[C@@]2(c2c(Cl)c(=O)n(-c3ccc(Cl)cc3)n2CCN(C)C)CC1=O [Compound 156-2]				< 2 nM
CC(C)C1=C2[C@H]3CC[C@@H]4[C@@]5(C)CC[C@H](OC(=O)CC(C)(C)C(=O)O)C(C)(C)[C@@H]5CC[C@@]4(C)[C@]3(C)CC[C@@]2([C@@H](O)c2nnc(-c3ccc(Cl)cc3)n2CCN)CC1=O [Compound 164-1]				< 2 nM
CC(C)C1=C2[C@H]3CC[C@@H]4[C@@]5(C)CC[C@H](OC(=O)CC(C)(C)C(=O)O)C(C)(C)[C@@H]5CC[C@@]4(C)[C@]3(C)CC[C@@]2([C@@H](O)c2nnc(-c3ccc(Cl)cc3)n2CCN(C)C)CC1=O [Compound 165-1]				< 2 nM
